Laboratory results published in paper PMC11597625, “Mutational Analysis of Substrate Recognition in Trypsin-like Protease Cocoonase: Protein Memory Induced by Alterations in Substrate-Binding Site” (Molecules, 2024).

Target: T1, CCN′ ([K63G,K131G,K133A]-CCN, degradation-suppressed cocoonase) (Bombyx mori, UniProt A7TVD3, K85G/K153G/K155A)
T1 construct: mature enzyme, propeptide removed (precursors carried K8D or K8D/E10D/E11D in the propeptide)
Assay: BAEE hydrolysis assay
Format: biochemical
Settings: assay conditions not described

T1 sequence (A7TVD3 entry or part of it K85G/K153G/K155A): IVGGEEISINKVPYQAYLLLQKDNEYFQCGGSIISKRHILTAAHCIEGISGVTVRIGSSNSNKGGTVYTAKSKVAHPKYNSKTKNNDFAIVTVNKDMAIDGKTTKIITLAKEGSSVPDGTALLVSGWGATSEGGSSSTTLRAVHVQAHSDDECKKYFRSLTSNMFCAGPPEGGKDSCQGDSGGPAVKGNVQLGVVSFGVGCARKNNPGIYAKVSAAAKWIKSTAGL

CCOC(=O)[C@H](CCCNC(=N)N)NC(=O)c1ccccc1 [BAEE]
Km: 372 µM
